# Experimental data reported in patent US20230203003A1, “Notch Inhibitors and Uses Thereof” (StemSynergy Therapeutics, Inc., priority 2020, published 2023).
# Counter-ions that a name gives are not always drawn.
# Molecular target: T1, hNotch1ICD (Homo sapiens, UniProt P46531)
# T1 construct: pLV[Tet]-Puro-TRE3G>Notch1-ICD; expressed in transfected cells; host or cells: 293A cells
# Assay: Notch1 Reporter Assay (Dox-inducible Notch1-ICD, CSL-responsive luciferase in 293A cells)
# Type: cell-based
# Settings: 293A cells, 24 h, luciferase normalized to cell viability; read-out: Notch1 Reporter Assay IC50
# Experimental: 293A cells expressing 1) pCMV-Tet-On 3G, 2) pLV[Tet]-Puro-TRE3G>Notch1-ICD, 3) pLV[Tet]-Puro-TRE3G>Notch2-ICD, 4) pLV[Tet]-Puro-TRE3G>Notch3-ICD, and 5) pCSL-RElement-Luc were used. When Doxycycline is added, the Tet-ON gene activates expression of hNotch1ICD, which together with endogenous NTC components binds to CSL responsive elements (pCSL-RElement-Luc) and expresses luciferase. 1 ×× 10^4 cells are plated in 100 µL (96-well format). 24 h later, compounds (10 mM stock in DMSO) are diluted in DMSO to 200X, then added (5 ul into 1 mL) to cell culture media containing 50 ng/mL Dox. This is then added 1:1 to cells. Final DMSO = 0.25%, Dox = 25 ng/mL. After 24 h, media is discarded, and cells are lysed in passive lysis buffer (Promega). Cells are rocked at room temperature for 15 min and then lysate is divided for luciferase assay (Luciferase Assay System, Promega) and cell viability (CellTiter Glo 2.0, Promega). Raw luciferase is normalized to cell viability, and then scaled to DMSO wells. Results are analyzed and IC50′s are determined in GraphPad by nonlinear regression curve fitting (4 parameter) of dose response curves.
# T1 sequence (P46531 1754-2555 limits assumed): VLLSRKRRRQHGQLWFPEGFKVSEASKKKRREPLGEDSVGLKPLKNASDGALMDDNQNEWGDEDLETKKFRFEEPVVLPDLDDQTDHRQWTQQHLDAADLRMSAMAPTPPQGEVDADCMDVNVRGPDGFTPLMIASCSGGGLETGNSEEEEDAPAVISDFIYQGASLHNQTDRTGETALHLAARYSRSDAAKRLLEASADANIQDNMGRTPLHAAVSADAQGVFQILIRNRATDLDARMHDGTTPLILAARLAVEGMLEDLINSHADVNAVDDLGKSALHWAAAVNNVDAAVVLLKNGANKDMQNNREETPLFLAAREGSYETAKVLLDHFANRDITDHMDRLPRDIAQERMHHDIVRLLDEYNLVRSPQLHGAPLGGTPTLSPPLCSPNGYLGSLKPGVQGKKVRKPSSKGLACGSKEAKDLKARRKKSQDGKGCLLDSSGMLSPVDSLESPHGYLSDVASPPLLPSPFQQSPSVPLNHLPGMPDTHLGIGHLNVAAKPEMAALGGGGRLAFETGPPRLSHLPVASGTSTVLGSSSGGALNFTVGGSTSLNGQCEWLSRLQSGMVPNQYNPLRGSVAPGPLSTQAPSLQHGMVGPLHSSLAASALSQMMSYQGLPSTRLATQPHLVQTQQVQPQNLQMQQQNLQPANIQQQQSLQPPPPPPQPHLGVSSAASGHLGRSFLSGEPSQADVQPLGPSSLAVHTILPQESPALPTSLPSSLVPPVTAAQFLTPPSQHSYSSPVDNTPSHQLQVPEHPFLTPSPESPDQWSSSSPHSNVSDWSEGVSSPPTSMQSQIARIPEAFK
row,Compound,IC50
1,CC(C)Cn1c(=O)c(C(=O)Nc2ccc(N3CCN(C)CC3)cc2)c(O)c2ccccc21 [569(01)],8.4 µM
2,CC(C)Cn1c(=O)c(C(=O)Nc2ccc(F)cc2N2CCN(C)CC2)c(O)c2ccccc21 [570(01)],6.5 µM
3,CC(C)Cn1c(=O)c(C(=O)Nc2cccc(F)c2)c(O)c2cc(N3CCN(C)CC3)ccc21 [577(01)],9.7 µM
4,Cc1cccnc1NC(=O)c1c(O)c2cc(N3CCN(C)CC3)ccc2n(CC(C)C)c1=O [579(01)],18.4 µM
5,Cc1cccnc1NC(=O)c1c(O)c2ccc(N3CCN(C)CC3)cc2n(CC(C)C)c1=O [580(01)],13.3 µM
6,Cc1cccnc1NC(=O)c1c(O)c2ccc(N3CCN(C)CC3)cc2n(CC(C)C)c1=O [580(02)],14 µM
7,CC(C)Cn1c(=O)c(C(=O)Nc2cccc(F)c2N2CCN(C)CC2)c(O)c2ccccc21 [581(01)],7.8 µM
8,CC(C)Cn1c(=O)c(C(=O)Nc2cccc(F)c2N2CCN(C)CC2)c(O)c2ccccc21 [581(02)],7.7 µM
9,CC(C)Cn1c(=O)c(C(=O)Nc2cc(F)cc(N3CCN(C)CC3)c2)c(O)c2ccccc21 [583(01)],8.1 µM
10,CC(C)Cn1c(=O)c(C(=O)Nc2cc(F)cc(N3CCN(C)CC3)c2)c(O)c2ccccc21 [583(02)],6.3 µM
11,CC(C)Cn1c(=O)c(C(=O)Nc2ccc(F)c(N3CCN(C)CC3)c2)c(O)c2ccccc21 [584(01)],4.5 µM
12,CC(C)Cn1c(=O)c(C(=O)Nc2cccc(F)c2)c(O)c2c(N3CCN(C)CC3)cccc21 [588(01)],10.3 µM
13,CC(C)Cn1c(=O)c(C(=O)Nc2cccc(F)c2)c(O)c2c(N3CCN(C)CC3)cccc21 [588(02)],9.8 µM
14,O=C(Nc1ccccc1)c1c(O)c2c(n(Cc3ccco3)c1=O)CCCC2 [SSTN-379],27.5 µM
15,CCCn1c2c(c(O)c(C(=O)Nc3ccccn3)c1=O)CCCC2 [SSTN-401],21.6 µM
16,O=C(Nc1ncccc1O)c1c(O)c2c([nH]c1=O)CCCC2 [SSTN-402],12.1 µM
17,Cc1ccnc(NC(=O)c2c(O)c3ccccc3n(Cc3ccccc3)c2=O)c1 [SSTN-410],21.9 µM
18,O=C(Nc1ccc(F)cc1)c1c(O)c2cccnc2n(-c2ccccc2)c1=O [SSTN-443],9 µM
19,"CC(C)Cn1c(=O)c(C(=O)Nc2cccc(F)c2)c(O)c2ccc(Br)cc21 [SSTN-567, 7-bromo-N-(3-fluorophenyl)-4-hydroxy-1-isobutyl-2-oxo-1,2-dihydroquinoline-3-carboxamide]",33.2 µM

# Same assay, conditions: value printed in the synthesis heading of the compound; read-out: Notch1 Reporter Assay IC50
row,Compound,IC50
1,"CC(C)Cn1c(=O)c(C(=O)Nc2ccccc2N2CCN(C)CC2)c(O)c2ccccc21 [SSTN-568, 4-hydroxy-1-isobutyl-N-(2-(4-methylpiperazin-1-yl)phenyl)-2-oxo-1,2-dihydroquinoline-3-carboxamide]",21.5 µM
2,"CC(C)Cn1c(=O)c(C(=O)Nc2ccccc2N2CCN(C)CC2)c(O)c2ccccc21 [SSTN-568_HCl salt, 4-hydroxy-1-isobutyl-N-(2-(4-methylpiperazin-1-yl)phenyl)-2-oxo-1,2-dihydroquinoline-3-carboxamide hydrochloride salt]",6.83 µM
3,"CC(C)Cn1c(=O)c(C(=O)Nc2ccc(N3CCN(C)CC3)cc2)c(O)c2ccccc21 [SSTN-569, 4-hydroxy-1-isobutyl-N-(4-(4-methylpiperazin-1-yl)phenyl)-2-oxo-1,2-dihydroquinoline-3-carboxamide]",8.42 µM
4,"CC(C)Cn1c(=O)c(C(=O)Nc2ccc(N3CCN(C)CC3)cc2)c(O)c2ccccc21 [SSTN-569_HCl salt, 4-hydroxy-1-isobutyl-N-(4-(4-methylpiperazin-1-yl)phenyl)-2-oxo-1,2-dihydroquinoline-3-carboxamide hydrochloride salt]",4.93 µM
5,"CC(C)Cn1c(=O)c(C(=O)Nc2ccc(F)cc2N2CCN(C)CC2)c(O)c2ccccc21 [SSTN-570, N-(4-fluoro-2-(4-methylpiperazin-1-yl)phenyl)-4-hydroxy-1-isobutyl-2-oxo-1,2-dihydroquinoline-3-carboxamide]",6.5 µM
6,"CC(C)Cn1c(=O)c(C(=O)Nc2ccc(F)cc2N2CCN(C)CC2)c(O)c2ccccc21 [SSTN-570_HCl salt, N-(4-fluoro-2-(4-methylpiperazin-1-yl)phenyl)-4-hydroxy-1-isobutyl-2-oxo-1,2-dihydroquinoline-3-carboxamide hydrochloride salt]",5.6 µM
7,"CC(C)Cn1c(=O)c(C(=O)Nc2cc(F)ccc2N2CCN(C)CC2)c(O)c2ccccc21 [SSTN-571_HCl salt, N-(5-fluoro-2-(4-methylpiperazin-1-yl)phenyl)-4-hydroxy-1-isobutyl-2-oxo-1,2-dihydroquinoline-3-carboxamide hydrochloride salt]",7.87 µM
8,"CC(C)Cn1c(=O)c(C(=O)Nc2ccc(N3CCN(C)CC3)c(F)c2)c(O)c2ccccc21 [SSTN-572, N-(3-fluoro-4-(4-methylpiperazin-1-yl)phenyl)-4-hydroxy-1-isobutyl-2-oxo-1,2-dihydroquinoline-3-carboxamide]",17.7 µM
9,"CC(C)Cn1c(=O)c(C(=O)Nc2ccc(N3CCN(C)CC3)c(F)c2)c(O)c2ccccc21 [SSTN-572_HCl salt, N-(3-fluoro-4-(4-methylpiperazin-1-yl)phenyl)-4-hydroxy-1-isobutyl-2-oxo-1,2-dihydroquinoline-3-carboxamide hydrochloride salt]",3.4 µM
10,"CC(C)Cn1c(=O)c(C(=O)Nc2cccc(F)c2)c(O)c2cc(N3CCN(C)CC3)ccc21 [SSTN-577, N-(3-fluorophenyl)-4-hydroxy-1-isobutyl-6-(4-methylpiperazin-1-yl)-2-oxo-1,2-dihydroquinoline-3-carboxamide]",9.69 µM
11,"CC(C)Cn1c(=O)c(C(=O)Nc2cccc(F)c2)c(O)c2cc(N3CCN(C)CC3)ccc21 [SSTN-577_HCl salt, N-(3-fluorophenyl)-4-hydroxy-1-isobutyl-6-(4-methylpiperazin-1-yl)-2-oxo-1,2-dihydroquinoline-3-carboxamide hydrochloride salt]",6.44 µM
12,"Cc1cccnc1NC(=O)c1c(O)c2cc(N3CCN(C)CC3)ccc2n(CC(C)C)c1=O [SSTN-579, 4-hydroxy-1-isobutyl-6-(4-methylpiperazin-1-yl)-N-(3-methylpyridin-2-yl)-2-oxo-1,2-dihydroquinoline-3-carboxamide]",18.4 µM
13,"Cc1cccnc1NC(=O)c1c(O)c2ccc(N3CCN(C)CC3)cc2n(CC(C)C)c1=O [SSTN-580_HCl salt, 4-hydroxy-1-isobutyl-7-(4-methylpiperazin-1-yl)-N-(3-methylpyridin-2-yl)-2-oxo-1,2-dihydroquinoline-3-carboxamide hydrochloride salt]",14 µM
14,"Cc1cccnc1NC(=O)c1c(O)c2ccc(N3CCN(C)CC3)cc2n(CC(C)C)c1=O [SSTN-580_TFA salt, 4-hydroxy-1-isobutyl-7-(4-methylpiperazin-1-yl)-N-(3-methylpyridin-2-yl)-2-oxo-1,2-dihydroquinoline-3-carboxamide TFA salt]",13.3 µM
15,"CC(C)Cn1c(=O)c(C(=O)Nc2cccc(F)c2N2CCN(C)CC2)c(O)c2ccccc21 [SSTN-581_Formate salt, N-(3-fluoro-2-(4-methylpiperazin-1-yl)phenyl)-4-hydroxy-1-isobutyl-2-oxo-1,2-dihydroquinoline-3-carboxamide formate salt]",7.76 µM
16,"CC(C)Cn1c(=O)c(C(=O)Nc2cccc(F)c2N2CCN(C)CC2)c(O)c2ccccc21 [SSTN-581_HCl salt, N-(3-fluoro-2-(4-methylpiperazin-1-yl)phenyl)-4-hydroxy-1-isobutyl-2-oxo-1,2-dihydroquinoline-3-carboxamide hydrochloride salt]",7.68 µM
17,"CC(C)Cn1c(=O)c(C(=O)Nc2cc(F)c(N3CCN(C)CC3)c(F)c2)c(O)c2ccccc21 [SSTN-582_HCl salt, N-(3,5-difluoro-4-(4-methylpiperazin-1-yl)phenyl)-4-hydroxy-1-isobutyl-2-oxo-1,2-dihydroquinoline-3-carboxamide hydrochloride salt]",1.9 µM
18,"CC(C)Cn1c(=O)c(C(=O)Nc2cc(F)cc(N3CCN(C)CC3)c2)c(O)c2ccccc21 [SSTN-583, N-(3-fluoro-5-(4-methylpiperazin-1-yl)phenyl)-4-hydroxy-1-isobutyl-2-oxo-1,2-dihydroquinoline-3-carboxamide]",8.13 µM
19,"CC(C)Cn1c(=O)c(C(=O)Nc2cc(F)cc(N3CCN(C)CC3)c2)c(O)c2ccccc21 [SSTN-583_HCl salt, N-(3-fluoro-5-(4-methylpiperazin-1-yl)phenyl)-4-hydroxy-1-isobutyl-2-oxo-1,2-dihydroquinoline-3-carboxamide hydrochloride salt]",6.33 µM
20,"CC(C)Cn1c(=O)c(C(=O)Nc2ccc(F)c(N3CCN(C)CC3)c2)c(O)c2ccccc21 [SSTN-584_Formate salt, N-(4-fluoro-3-(4-methylpiperazin-1-yl)phenyl)-4-hydroxy-1-isobutyl-2-oxo-1,2-dihydroquinoline-3-carboxamide formate salt]",4.54 µM
21,"CC(C)Cn1c(=O)c(C(=O)Nc2ccc(F)c(N3CCN(C)CC3)c2)c(O)c2ccccc21 [SSTN-584_HCl salt, N-(4-fluoro-3-(4-methylpiperazin-1-yl)phenyl)-4-hydroxy-1-isobutyl-2-oxo-1,2-dihydroquinoline-3-carboxamide hydrochloride salt]",6.04 µM
